The values that follow come from patent publication US10155756B2, “Pyrazolo[1,5-A]pyridine compounds and use thereof” (GUANGZHOU INSTITUTES OF BIOMEDICINE AND HEALTH, CHINESE …, priority 2014, dated 2018).

Converted amounts (≈) assume the structure as drawn.

The experiment deals with self-luminescent tuberculosis. The experiment in a line: microbe, parasite or virus in culture. The format is cell-based. The settings on record: Mycobacterium tuberculosis, 72 h; read-out: MIClux.
In the case of `Cc1ccn2nc(C)c(C(=O)NCc3ccc(-c4ccc(OC(F)(F)F)cc4)cc3)c2c1` [TJ830151, 2,5-dimethyl-N-((4′-(trifluoromethoxy)-[1,1′-biphenyl]-4-yl)methyl) pyrazolo [1,5-a] pyridine-3-carboxamide], the MIC is less than 1 µg/mL.

For `Cc1ccn2nc(C)c(C(=O)NCc3ccc(-c4ccc(OC(F)(F)F)cc4)nc3)c2c1` [TJ830025, 2,5-dimethyl-N-((6-(4-(trifluoromethoxy)phenyl)pyridine-3-yl)methyl) pyrazolo [1,5-a] pyridine-3-carboxamide], the MIC was less than 1 µg/mL.

On to `Cc1ccn2nc(C)c(C(=O)NCc3ccc(-c4ccc(OC(F)(F)F)cc4)s3)c2c1` [TJ830132, 2,5-dimethyl-N-((5-(4-(trifluoromethoxy)phenyl)thiophene-2-yl)methyl) pyrazolo [1,5-a] pyridine-3-carboxamide], for which the MIC was less than 1 µg/mL.

Consider `Cc1nn2ccc(Br)cc2c1C(=O)NCc1ccc(N2CCC(c3ccc(OC(F)(F)F)cc3)CC2)cc1` [TJ830008, 5-bromo-2-methyl-N-(4-(4-(4-(trifluoromethoxy)phenyl)piperidine-1-yl)benzyl) pyrazolo [1,5-a] pyridine-3-carboxamide], for which the MIC is less than 1 µg/mL.

Turning to `CCOc1ccn2nc(C)c(C(=O)NCc3ccc(N4CCC(c5ccc(OC(F)(F)F)cc5)CC4)cc3)c2c1` [TJ830108, 5-methyl-2-ethoxy-N-(4-(4-(4-(trifluoromethoxy)phenyl)piperidine-1-substituted)benzyl) pyrazolo [1,5-a] pyridine-3-carboxamide], the MIC was less than 1 µg/mL.

Take `CCc1nn2ccc(Cl)cc2c1C(=O)NC(C)(C)c1ccc(N2CCC(c3ccc(OC(F)(F)F)cc3)CC2)cc1` [TJ064987, 5-chloro-2-ethyl-N-(2-(4-(4-(4-(trifluoromethoxy)phenyl)piperidine-1-yl)phenyl)propane-2-substituted) pyrazolo [1,5-a] pyridine-3-carboxamide]: the MIC was greater than 10 µg/mL.

In the case of `Cc1nn2ccc(C(C)(C)C)cc2c1C(=O)NCc1ccc(N2CCC(c3ccc(OC(F)(F)F)cc3)CC2)cc1` [TJ830075, 5-tert-Butyl-2-methyl-N-(4-(4-(4-(trifluoromethoxy)phenyl)piperidine-1-substituted)benzyl) pyrazolo [1,5-a] pyridine-3-carboxamide], the MIC was greater than 10 µg/mL.

For the compound `Cc1ccn2nc(C)c(C(=O)NCc3ccc(-c4ccc(OC(F)(F)F)cc4)cn3)c2c1` [TJ830133, 2,5-dimethyl-N-((5-(4-(trifluoromethoxy)phenyl)pyridine-2-yl)methyl) pyrazolo [1,5-a] pyridine-3-carboxamide], the MIC is less than 1 µg/mL.

Regarding `Cc1ccn2nc(C)c(C(=O)NCc3ccc(C(C)(C)C)cc3)c2c1` [TJ830135, N-(4-(tert-butyl)benzyl)-2,5-dimethylpyrazolo [1,5-a] pyridine-3-carboxamide], the MIC was less than 1 µg/mL.

For the compound `CCCc1nn2ccc(Cl)cc2c1C(=O)NCc1ccc(N2CCC(c3ccc(OC(F)(F)F)cc3)CC2)cc1` [TJ830134], the MIC is less than 1 µg/mL.

Take `Cc1ccn2nc(C)c(C(=O)NCc3ccc(N4CCCCC4)cc3)c2c1` [TJ830146, 2,5-dimethyl-N-(4-(piperidine-1-yl)benzyl) pyrazolo [1,5-a] pyridine-3-carboxamide]: the MIC is less than 1 µg/mL.

Consider `Cc1ccn2nc(C)c(C(=O)NCc3ccc(Oc4ccc(F)cc4)cc3)c2c1` [TJ830147, N-(4-(4-fluorophenoxy)benzyl)-2,5-dimethylpyrazolo [1,5-a] pyridine-3-carboxamide], for which the MIC was less than 1 µg/mL.

For the compound `CCc1nn2ccc(Cl)cc2c1C(=O)N(C)Cc1ccc(N2CCC(c3ccc(OC(F)(F)F)cc3)CC2)cc1` [TJ064985], the MIC was 1 to 10 µg/mL (≈ 1.75 to 17.5 µM).

As to `Cc1nn2cccc(C)c2c1C(=O)NCc1ccc(N2CCC(c3ccc(OC(F)(F)F)cc3)CC2)cc1` [TJ064872, 2,4-dimethyl-N-(4-(4-(4-(trifluoromethoxy)phenyl)piperidine-1-yl)benzyl) pyrazolo[1,5-a] pyridine-3-carboxamide], the MIC is greater than 10 µg/mL.

Consider `CCc1nn2ccc(Cl)cc2c1C(=O)NCc1ccc(F)cc1` [TJ4570004, 5-chloro-2-ethyl-N-(4-fluorobenzyl) pyrazolo [1,5-a] pyridine-3-carboxamide], for which the MIC was greater than 10 µg/mL.

Consider `Cc1ccn2nc(C)c(C(=O)NCc3ccc(N4CCC(c5ccc(F)cc5)CC4)cc3)c2c1` [TJ830141, N-(4-(4-(4-fluorophenyl)piperidine-1-yl)benzyl)-2,5-dimethyl-pyrazolo [1,5-a] pyridine-3-carboxamide], for which the MIC was less than 1 µg/mL.

`CCc1nn2ccc(Cl)cc2c1C(=O)Nc1ccc(N2CCC(c3ccc(OC(F)(F)F)cc3)CC2)cc1` [TJ064819, 5-chloro-2-ethyl-N-(4-(4-(4-(trifluoromethoxy)phenyl)piperidine-1-yl)phenyl) pyrazolo [1,5-a] pyridine-3-carboxamide]: the MIC is greater than 10 µg/mL.

In the case of `Cc1ccn2nc(C)c(C(=O)NCc3ccc(N4CCC(Oc5ccc(OC(F)(F)F)cc5)CC4)cc3)c2c1` [TJ830161, 2,5-dimethyl-N-(4-(4-(4-(trifluoromethoxy)phenoxy)piperidine-1-yl)benzyl) pyrazolo [1,5-a] pyridine-3-carboxamide], the MIC was less than 1 µg/mL.

`Cc1ccn2nc(C)c(C(=O)NCc3ccc(N4CCN(c5ccc(F)cc5)CC4)cc3)c2c1` [TJ830152, N-(4-(4-(4-fluorophenyl)piperazine-1-yl)benzyl)-2,5-dimethyl-pyrazolo [1,5-a] pyridine-3-carboxamide]: the MIC was less than 1 µg/mL.

Consider `COc1ccn2nc(C)c(C(=O)NCc3ccc(N4CCC(c5ccc(OC(F)(F)F)cc5)CC4)cc3)c2c1` [TJ830047, 5-methoxy-2-methyl-N-(4-(4-(4-(trifluoromethoxy)phenyl)piperidine-1-yl)benzyl) pyrazolo [1,5-a] pyridine-3-carboxamide], for which the MIC was less than 1 µg/mL.

For the compound `Cc1nn2ccc(C(F)(F)F)cc2c1C(=O)NCc1ccc(N2CCC(c3ccc(OC(F)(F)F)cc3)CC2)cc1` [TJ064995, 5-trifluoromethyl-2-methyl-N-(4-(4-(4-(trifluoromethoxy)phenyl)piperidine-1-yl)benzyl) pyrazolo [1,5-a] pyridine-3-carboxamide], the MIC lay in the range of 1 to 10 µg/mL (≈ 1.73 to 17.3 µM).

Regarding `Cc1nn2ccc(-c3ccccc3)cc2c1C(=O)NCc1ccc(N2CCC(c3ccc(OC(F)(F)F)cc3)CC2)cc1` [TJ830012, 5-phenyl-2-methyl-N-(4-(4-(4-(trifluoromethoxy)phenyl)piperidine-1-yl)benzyl) pyrazolo [1,5-a] pyridine-3-carboxamide], the MIC is greater than 10 µg/mL.

Regarding `Cc1ccn2nc(C)c(C(=O)NCc3cnc(-c4ccc(OC(F)(F)F)cc4)nc3)c2c1` [TJ830150, 2,5-Dimethyl-N-((2-(4-(trifluoromethoxy)phenyl)pyrimidine-5-yl)methyl) pyrazolo [1,5-a] pyridine-3-carboxamide], the MIC is less than 1 µg/mL.

Consider `Cc1nn2c(C)cccc2c1C(=O)NCc1ccc(N2CCC(c3ccc(OC(F)(F)F)cc3)CC2)cc1` [TJ064851, 2,7-dimethyl-N-(4-(4-(4-(trifluoromethoxy)phenyl)piperidine-1-yl)benzyl) pyrazolo[1,5-a] pyridine-3-carboxamide], for which the MIC is 1 to 10 µg/mL (≈ 1.91 to 19.1 µM).

Take `CCc1nn2ccc(OC)cc2c1C(=O)NCc1ccc(N2CCC(c3ccc(OC(F)(F)F)cc3)CC2)cc1` [TJ064889, 5-methoxy-2-ethyl-N-(4-(4-(4-(trifluoromethoxy)phenyl)piperidine-1-substituted)benzyl) pyrazolo[1,5-a] pyridine-3-carboxamide]: the MIC is less than 1 µg/mL.

With `Cc1ccn2nc(C)c(C(=O)NCc3ccc(F)cc3)c2c1` [TJ4570006, N-(4-fluorobenzyl)-2,5-dimethylpyrazolo [1,5-a] pyridine-3-carboxamide], the MIC lay within 1 to 10 µg/mL (≈ 3.36 to 33.6 µM).

Regarding `Cc1ccn2nc(C)c(C(=O)NCc3ccc(Oc4ccc(OC(F)(F)F)cc4)cc3)c2c1` [TJ830153], the MIC is less than 1 µg/mL.

As to `CCc1nn2ccc(Cl)cc2c1C(=O)NCCc1ccc(N2CCC(c3ccc(OC(F)(F)F)cc3)CC2)cc1` [TJ830128, 5-chloro-2-ethyl-N-(4-(4-(4-(trifluoromethoxy)phenyl)piperidine-1-yl)phenethyl) pyrazolo [1,5-a] pyridine-3-carboxamide], the MIC was in the range of 1 to 10 µg/mL (≈ 1.75 to 17.5 µM).

As for `CCc1nn2ccc(C)cc2c1C(=O)NCc1ccc(N2CCC(c3ccc(OC(F)(F)F)cc3)CC2)cc1` [TJ830102, 5-methyl-2-ethyl-N-(4-(4-(4-(trifluoromethoxy)phenyl)piperidine-1-substituted)benzyl) pyrazolo [1,5-a] pyridine-3-carboxamide], the MIC was less than 1 µg/mL.

Take `CCc1nn2ccc(Cl)cc2c1C(=O)NCc1ccc(C(=O)OC)cc1` [TJ064814, 4-((5-chloro-2-ethylpyrazolo [1,5-a]pyridine-3-carboxamide)methyl) methyl benzoate]: the MIC lay within 1 to 10 µg/mL (≈ 2.69 to 26.9 µM).

On to `O=C(NCc1ccc(N2CCC(c3ccc(OC(F)(F)F)cc3)CC2)cc1)c1c(-c2ccccc2)nn2ccc(Cl)cc12` [TJ170386, 5-chloro-2-phenyl-N-(4-(4-(4-(trifluoromethoxy)phenyl)piperidine-1-yl)benzyl) pyrazolo [1,5-a] pyridine-3-carboxamide], for which the MIC was greater than 10 µg/mL.

Regarding `Cc1ccn2nc(C)c(C(=O)NCc3ccc(C(F)(F)F)cc3)c2c1` [TJ830072], the MIC is less than 1 µg/mL.

Take `Cc1ccn2nc(C)c(C(=O)NCc3ccc(N(C)C)cc3)c2c1` [TJ830136, N-(4-(dimethylamino)benzyl)-2,5-dimethylpyrazolo [1,5-a] pyridine-3-carboxamide]: the MIC was less than 1 µg/mL.

For the compound `CCc1ccn2nc(C)c(C(=O)NCc3ccc(N4CCC(c5ccc(OC(F)(F)F)cc5)CC4)cc3)c2c1` [TJ830082, 5-ethyl-2-methyl-N-(4-(4-(4-(trifluoromethoxy)phenyl)piperidine-1-substituted)benzyl) pyrazolo [1,5-a] pyridine-3-carboxamide], the MIC was less than 1 µg/mL.

On to `Cc1nn2ccccc2c1C(=O)NCc1ccc(C(F)(F)F)cc1` [TJ830069], for which the MIC is 1 to 10 µg/mL (≈ 3 to 30 µM).

As to `CCc1nn2ccc(Cl)cc2c1C(=O)NCc1ccc(-c2ccc(OC(F)(F)F)cc2)nc1` [TJ830028, 5-chloro-2-ethyl-N-((6-(4-(trifluoromethoxy)phenyl)pyridine-3-yl)methyl) pyrazolo [1,5-a] pyridine-3-carboxamide], the MIC was less than 1 µg/mL.
